Laboratory results as given in the NIST ThermoML archive (doi:10.1016/j.tca.2012.02.002).
Values joined by “and” are separate entries in the source; they are usually repeats but may differ in a detail not shown here. Identical values can stand only once.

Test: molar heat capacity at constant pressure
Conditions: 101.33 kPa, Crystal

O=P([O-])([O-])[O-].[Er+3] [erbium phosphate]
Conditions	molar heat capacity at constant pressure
2 K, Drop calorimetry	0.189 J/K/mol
2.05 K, Relaxation Calorimetry	0.1821 J/K/mol
2.06 K, Relaxation Calorimetry	0.1815 J/K/mol
2.15 K, Relaxation Calorimetry	0.169 J/K/mol and 0.1693 J/K/mol
2.23 K, Relaxation Calorimetry	0.1585 J/K/mol
2.24 K, Relaxation Calorimetry	0.1587 J/K/mol
2.33 K, Relaxation Calorimetry	0.1486 J/K/mol and 0.1492 J/K/mol
2.42 K, Relaxation Calorimetry	0.1398 J/K/mol
2.52 K, Relaxation Calorimetry	0.1308 J/K/mol and 0.1303 J/K/mol
2.62 K, Relaxation Calorimetry	0.1226 J/K/mol
2.63 K, Relaxation Calorimetry	0.1216 J/K/mol
2.73 K, Relaxation Calorimetry	0.1149 J/K/mol
2.74 K, Relaxation Calorimetry	0.1147 J/K/mol
2.84 K, Relaxation Calorimetry	0.1079 J/K/mol
2.85 K, Relaxation Calorimetry	0.1075 J/K/mol
2.96 K, Relaxation Calorimetry	0.1012 J/K/mol
2.97 K, Relaxation Calorimetry	0.101 J/K/mol
3 K, Drop calorimetry	0.0991 J/K/mol
3.08 K, Relaxation Calorimetry	0.09512 J/K/mol
3.09 K, Relaxation Calorimetry	0.095 J/K/mol
3.21 K, Relaxation Calorimetry	0.08975 J/K/mol
3.22 K, Relaxation Calorimetry	0.0889 J/K/mol
3.34 K, Relaxation Calorimetry	0.08523 J/K/mol
3.35 K, Relaxation Calorimetry	0.0846 J/K/mol
3.48 K, Relaxation Calorimetry	0.08127 J/K/mol and 0.0813 J/K/mol
3.62 K, Relaxation Calorimetry	0.07825 J/K/mol
3.64 K, Relaxation Calorimetry	0.0777 J/K/mol
3.77 K, Relaxation Calorimetry	0.07611 J/K/mol and 0.0763 J/K/mol
3.93 K, Relaxation Calorimetry	0.0754 J/K/mol
4 K, Drop calorimetry	0.0755 J/K/mol
4.1 K, Relaxation Calorimetry	0.07633 J/K/mol and 0.0764 J/K/mol
4.27 K, Relaxation Calorimetry	0.07937 J/K/mol and 0.079 J/K/mol
4.44 K, Relaxation Calorimetry	0.08477 J/K/mol
4.45 K, Relaxation Calorimetry	0.0843 J/K/mol
4.62 K, Relaxation Calorimetry	0.09293 J/K/mol
4.63 K, Relaxation Calorimetry	0.0925 J/K/mol
4.82 K, Relaxation Calorimetry	0.1048 J/K/mol and 0.1045 J/K/mol
5.02 K, Relaxation Calorimetry	0.1211 J/K/mol and 0.1208 J/K/mol
5.22 K, Relaxation Calorimetry	0.1421 J/K/mol and 0.142 J/K/mol
5.44 K, Relaxation Calorimetry	0.1701 J/K/mol and 0.1698 J/K/mol
5.67 K, Relaxation Calorimetry	0.2055 J/K/mol and 0.2049 J/K/mol
5.91 K, Relaxation Calorimetry	0.2491 J/K/mol and 0.2489 J/K/mol
6 K, Drop calorimetry	0.268 J/K/mol
6.15 K, Relaxation Calorimetry	0.3031 J/K/mol and 0.3029 J/K/mol
6.41 K, Relaxation Calorimetry	0.3662 J/K/mol and 0.3497 J/K/mol
6.67 K, Relaxation Calorimetry	0.4408 J/K/mol
6.68 K, Relaxation Calorimetry	0.4451 J/K/mol
6.96 K, Relaxation Calorimetry	0.5353 J/K/mol and 0.5363 J/K/mol
7.24 K, Relaxation Calorimetry	0.6377 J/K/mol
7.25 K, Relaxation Calorimetry	0.6369 J/K/mol
7.55 K, Relaxation Calorimetry	0.7594 J/K/mol and 0.7584 J/K/mol
7.87 K, Relaxation Calorimetry	0.893 J/K/mol and 0.8931 J/K/mol
8 K, Drop calorimetry	0.956 J/K/mol
8.2 K, Relaxation Calorimetry	1.047 J/K/mol and 1.049 J/K/mol
8.54 K, Relaxation Calorimetry	1.218 J/K/mol
8.56 K, Vacuum adiabatic calorimetry	1.262 J/K/mol
8.9 K, Relaxation Calorimetry	1.407 J/K/mol and 1.404 J/K/mol
9.19 K, Vacuum adiabatic calorimetry	1.587 J/K/mol
9.27 K, Relaxation Calorimetry	1.607 J/K/mol and 1.604 J/K/mol
9.65 K, Relaxation Calorimetry	1.831 J/K/mol
9.84 K, Vacuum adiabatic calorimetry	1.971 J/K/mol
10 K, Drop calorimetry	2.222 J/K/mol
10.05 K, Relaxation Calorimetry	2.057 J/K/mol and 2.046 J/K/mol
10.26 K, Relaxation Calorimetry	2.218 J/K/mol
10.52 K, Vacuum adiabatic calorimetry	2.384 J/K/mol
10.53 K, Relaxation Calorimetry	2.408 J/K/mol
10.66 K, Relaxation Calorimetry	2.462 J/K/mol
10.91 K, Relaxation Calorimetry	2.636 J/K/mol
11.1 K, Relaxation Calorimetry	2.733 J/K/mol
11.21 K, Vacuum adiabatic calorimetry	2.814 J/K/mol
11.35 K, Relaxation Calorimetry	2.908 J/K/mol
11.56 K, Relaxation Calorimetry	3.016 J/K/mol
11.81 K, Relaxation Calorimetry	3.191 J/K/mol
11.92 K, Vacuum adiabatic calorimetry	3.253 J/K/mol
12.04 K, Relaxation Calorimetry	3.31 J/K/mol
12.29 K, Relaxation Calorimetry	3.486 J/K/mol
12.53 K, Relaxation Calorimetry	3.616 J/K/mol
12.64 K, Vacuum adiabatic calorimetry	3.701 J/K/mol
12.78 K, Relaxation Calorimetry	3.791 J/K/mol
13.05 K, Relaxation Calorimetry	3.929 J/K/mol
13.3 K, Relaxation Calorimetry	4.098 J/K/mol
13.37 K, Vacuum adiabatic calorimetry	4.111 J/K/mol
13.59 K, Relaxation Calorimetry	4.242 J/K/mol
13.84 K, Relaxation Calorimetry	4.403 J/K/mol
14.12 K, Vacuum adiabatic calorimetry	4.51 J/K/mol
14.15 K, Relaxation Calorimetry	4.549 J/K/mol
14.41 K, Relaxation Calorimetry	4.708 J/K/mol
14.74 K, Relaxation Calorimetry	4.863 J/K/mol
14.88 K, Vacuum adiabatic calorimetry	4.899 J/K/mol
14.99 K, Relaxation Calorimetry	5.019 J/K/mol
15 K, Drop calorimetry	4.903 J/K/mol
15.35 K, Relaxation Calorimetry	5.181 J/K/mol
15.6 K, Relaxation Calorimetry	5.328 J/K/mol
15.65 K, Vacuum adiabatic calorimetry	5.247 J/K/mol
15.99 K, Relaxation Calorimetry	5.488 J/K/mol
16.24 K, Relaxation Calorimetry	5.627 J/K/mol
16.43 K, Vacuum adiabatic calorimetry	5.599 J/K/mol
16.65 K, Relaxation Calorimetry	5.792 J/K/mol
16.91 K, Relaxation Calorimetry	5.923 J/K/mol
17.21 K, Vacuum adiabatic calorimetry	5.933 J/K/mol
17.34 K, Relaxation Calorimetry	6.085 J/K/mol
17.6 K, Relaxation Calorimetry	6.206 J/K/mol
18 K, Vacuum adiabatic calorimetry	6.247 J/K/mol
18.06 K, Relaxation Calorimetry	6.369 J/K/mol
18.32 K, Relaxation Calorimetry	6.493 J/K/mol
18.8 K, Vacuum adiabatic calorimetry	6.533 J/K/mol
18.81 K, Relaxation Calorimetry	6.67 J/K/mol
19.07 K, Relaxation Calorimetry	6.774 J/K/mol
19.59 K, Vacuum adiabatic calorimetry	6.837 J/K/mol
19.6 K, Relaxation Calorimetry	6.935 J/K/mol
19.85 K, Relaxation Calorimetry	7.052 J/K/mol
20 K, Drop calorimetry	6.881 J/K/mol
20.41 K, Relaxation Calorimetry	7.222 J/K/mol
20.67 K, Relaxation Calorimetry	7.329 J/K/mol
20.84 K, Vacuum adiabatic calorimetry	7.265 J/K/mol
21.26 K, Relaxation Calorimetry	7.493 J/K/mol
21.52 K, Relaxation Calorimetry	7.59 J/K/mol
22.14 K, Relaxation Calorimetry	7.771 J/K/mol
22.39 K, Vacuum adiabatic calorimetry	7.793 J/K/mol
22.4 K, Relaxation Calorimetry	7.869 J/K/mol
23.06 K, Relaxation Calorimetry	8.068 J/K/mol
23.32 K, Relaxation Calorimetry	8.163 J/K/mol
23.97 K, Vacuum adiabatic calorimetry	8.29 J/K/mol
24.02 K, Relaxation Calorimetry	8.364 J/K/mol
24.29 K, Relaxation Calorimetry	8.456 J/K/mol
25 K, Drop calorimetry	8.631 J/K/mol
25.02 K, Relaxation Calorimetry	8.665 J/K/mol
25.28 K, Relaxation Calorimetry	8.765 J/K/mol
25.55 K, Vacuum adiabatic calorimetry	8.799 J/K/mol
26.06 K, Relaxation Calorimetry	9.002 J/K/mol
26.32 K, Relaxation Calorimetry	9.091 J/K/mol
27.13 K, Vacuum adiabatic calorimetry	9.314 J/K/mol
27.41 K, Relaxation Calorimetry	9.432 J/K/mol
28.27 K, Relaxation Calorimetry	9.673 J/K/mol
28.53 K, Relaxation Calorimetry	9.786 J/K/mol
28.72 K, Vacuum adiabatic calorimetry	9.871 J/K/mol
29.45 K, Relaxation Calorimetry	10.07 J/K/mol
29.72 K, Relaxation Calorimetry	10.17 J/K/mol
30 K, Drop calorimetry	10.43 J/K/mol
30.31 K, Vacuum adiabatic calorimetry	10.46 J/K/mol
30.68 K, Relaxation Calorimetry	10.5 J/K/mol
30.95 K, Relaxation Calorimetry	10.6 J/K/mol
31.9 K, Vacuum adiabatic calorimetry	11.11 J/K/mol
31.97 K, Relaxation Calorimetry	10.96 J/K/mol
32.22 K, Relaxation Calorimetry	11.08 J/K/mol
33.31 K, Relaxation Calorimetry	11.44 J/K/mol
33.49 K, Vacuum adiabatic calorimetry	11.75 J/K/mol
33.56 K, Relaxation Calorimetry	11.58 J/K/mol
34.69 K, Relaxation Calorimetry	11.99 J/K/mol
34.95 K, Relaxation Calorimetry	12.12 J/K/mol
35 K, Drop calorimetry	12.41 J/K/mol
35.09 K, Vacuum adiabatic calorimetry	12.32 J/K/mol
36.69 K, Vacuum adiabatic calorimetry	13.09 J/K/mol
38.29 K, Vacuum adiabatic calorimetry	13.85 J/K/mol
39.9 K, Vacuum adiabatic calorimetry	14.59 J/K/mol
40 K, Drop calorimetry	14.63 J/K/mol
41.51 K, Vacuum adiabatic calorimetry	15.35 J/K/mol
43.13 K, Vacuum adiabatic calorimetry	16.12 J/K/mol
44.75 K, Vacuum adiabatic calorimetry	16.95 J/K/mol
45 K, Drop calorimetry	17.07 J/K/mol
46.39 K, Vacuum adiabatic calorimetry	17.8 J/K/mol
